Measurements as given in ChEMBL document CHEMBL1201862, “PubChem BioAssay data set” (2004).
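Step 1: Grow cells in 96-well plates. Step 2: Expose to compound for 48 hours at 5 concentrations. Step 3: Interpolate endpoints linearly; if unreached, use highest concentration. GI50: concentration for 50% inhibition of growth.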 Calls of active or inactive are those of the source. No stated cut-off is given here; in the data, active = GI50 up to about 1.1 µM and inactive = higher.

Experiments:
Assay in all cases: NCI-60 cell line screen, 48 h
786-0 = test system: 786-0
A498 = test system: A498
A549 = test system: A549
ACHN = test system: ACHN
BT-549 = test system: BT-549
CAKI-1 = test system: CAKI-1
CCRF-CEM = test system: CCRF-CEM
COLO 205 = test system: COLO 205
DU-145 = test system: DU-145
EKVX = test system: EKVX
HCC 2998 = test system: HCC 2998
HCT-116 = test system: HCT-116
HCT-15 = test system: HCT-15
HL-60 = test system: HL-60
HOP-92 = test system: HOP-92
HT-29 = test system: HT-29
Hs-578T = test system: Hs-578T
IGROV-1 = test system: IGROV-1
K562 = test system: K562
KM12 = test system: KM12
LOX IMVI = test system: LOX IMVI
M14 = test system: M14
MCF7 = test system: MCF7
MDA-MB-231 = test system: MDA-MB-231
MDA-MB-435 = test system: MDA-MB-435
MOLT-4 = test system: MOLT-4
Malme-3M = test system: Malme-3M
NCI-H226 = test system: NCI-H226
NCI-H23 = test system: NCI-H23
NCI-H460 = test system: NCI-H460
NCI-H522 = test system: NCI-H522
NCI/ADR-RES = test system: NCI/ADR-RES
OVCAR-3 = test system: OVCAR-3
OVCAR-4 = test system: OVCAR-4
OVCAR-5 = test system: OVCAR-5
OVCAR-8 = test system: OVCAR-8
PC-3 = test system: PC-3
RPMI-8226 = test system: RPMI-8226
SF-268 = test system: SF-268
SF-295 = test system: SF-295
SF-539 = test system: SF-539
SK-MEL-28 = test system: SK-MEL-28
SK-MEL-2 = test system: SK-MEL-2
SK-MEL-5 = test system: SK-MEL-5
SK-OV-3 = test system: SK-OV-3
SN12C = test system: SN12C
SNB-19 = test system: SNB-19
SW-620 = test system: SW-620
T47D = test system: T47D
TK-10 = test system: TK-10
U-251 = test system: U-251
UACC-257 = test system: UACC-257
UACC-62 = test system: UACC-62
UO-31 = test system: UO-31
HOP-62 = test system: HOP-62
SNB-75 = test system: SNB-75
SR = test system: SR
RXF 393 = test system: RXF 393

SMILES: CCCCc1ccc(Nc2nc(S)c3[nH]cnc3n2)cc1
- GI50 (786-0): 33.2 µM (inactive)
- GI50 (A498): 16.6 µM (inactive)
- GI50 (A549): 36.8 µM (inactive)
- GI50 (ACHN): 23.1 µM (inactive)
- GI50 (BT-549): 17.4 µM (inactive)
- GI50 (CAKI-1): 34.5 µM (inactive)
- GI50 (CCRF-CEM): 21.1 µM (inactive)
- GI50 (COLO 205): 16.6 µM (inactive)
- GI50 (DU-145): 35.5 µM (inactive)
- GI50 (EKVX): > 10 µM (inactive)
- GI50 (HCC 2998): 25.5 µM (inactive)
- GI50 (HCT-116): 25.5 µM (inactive)
- GI50 (HCT-15): 37.5 µM
- GI50 (HL-60): 27.9 µM (inactive)
- GI50 (HOP-92): 32.4 µM (inactive)
- GI50 (HT-29): 10.3 µM (inactive)
- GI50 (Hs-578T): 21.5 µM (inactive)
- GI50 (IGROV-1): 18.7 µM (inactive)
- GI50 (K562): 43.4 µM (inactive)
- GI50 (KM12): 11.4 µM (inactive)
- GI50 (LOX IMVI): 17.5 µM (inactive)
- GI50 (M14): 24.2 µM (inactive)
- GI50 (MCF7): > 10 µM (inactive)
- GI50 (MDA-MB-231): 28.9 µM (inactive)
- GI50 (MDA-MB-435): 17.1 µM (inactive)
- GI50 (MOLT-4): 1.43 µM (inactive)
- GI50 (Malme-3M): 22 µM (inactive)
- GI50 (NCI-H226): 16.3 µM (inactive)
- GI50 (NCI-H23): 18.7 µM (inactive)
- GI50 (NCI-H460): 33.3 µM (inactive)
- GI50 (NCI-H522): 10.9 µM (inactive)
- GI50 (NCI/ADR-RES): 13.4 µM (inactive)
- GI50 (OVCAR-3): 16.1 µM (inactive)
- GI50 (OVCAR-4): 23.9 µM (inactive)
- GI50 (OVCAR-5): 17.2 µM (inactive)
- GI50 (OVCAR-8): > 10 µM (inactive)
- GI50 (PC-3): 29.7 µM (inactive)
- GI50 (RPMI-8226): 44.5 µM (inactive)
- GI50 (SF-268): 50.7 µM (inactive)
- GI50 (SF-295): 25.1 µM (inactive)
- GI50 (SF-539): 20.3 µM (inactive)
- GI50 (SK-MEL-28): 22.9 µM (inactive)
- GI50 (SK-MEL-2): 17 µM (inactive)
- GI50 (SK-MEL-5): 12.5 µM (inactive)
- GI50 (SK-OV-3): > 10 µM (inactive)
- GI50 (SN12C): 22.8 µM (inactive)
- GI50 (SNB-19): 22.8 µM (inactive)
- GI50 (SW-620): 15.4 µM (inactive)
- GI50 (T47D): 15.6 µM (inactive)
- GI50 (TK-10): 20.6 µM (inactive)
- GI50 (U-251): 24.7 µM (inactive)
- GI50 (UACC-257): 21.6 µM (inactive)
- GI50 (UACC-62): 18.5 µM (inactive)
- GI50 (UO-31): 28.1 µM (inactive)

SMILES: O=C(O)CN1CCN(CC(=O)N2CCN(C(=O)OCc3ccccc3)CC2)CCN(CC(=O)O)CCN(CC(=O)N2CCN(C(=O)OCc3ccccc3)CC2)CC1
- GI50 (786-0): > 100 µM (inactive)
- GI50 (A498): > 100 µM (inactive)
- GI50 (A549): > 100 µM (inactive)
- GI50 (ACHN): > 100 µM (inactive)
- GI50 (BT-549): > 100 µM (inactive)
- GI50 (CAKI-1): > 100 µM (inactive)
- GI50 (CCRF-CEM): > 100 µM (inactive)
- GI50 (COLO 205): > 100 µM (inactive)
- GI50 (DU-145): > 100 µM (inactive)
- GI50 (EKVX): > 100 µM (inactive)
- GI50 (HCC 2998): > 100 µM (inactive)
- GI50 (HCT-116): > 100 µM (inactive)
- GI50 (HCT-15): > 100 µM
- GI50 (HL-60): > 100 µM (inactive)
- GI50 (HOP-62): > 100 µM (inactive)
- GI50 (HOP-92): > 100 µM (inactive)
- GI50 (HT-29): > 100 µM (inactive)
- GI50 (Hs-578T): > 100 µM (inactive)
- GI50 (IGROV-1): > 100 µM (inactive)
- GI50 (K562): > 100 µM (inactive)
- GI50 (KM12): > 100 µM (inactive)
- GI50 (LOX IMVI): > 100 µM (inactive)
- GI50 (M14): > 100 µM (inactive)
- GI50 (MCF7): > 100 µM (inactive)
- GI50 (MDA-MB-231): > 100 µM (inactive)
- GI50 (MDA-MB-435): > 100 µM (inactive)
- GI50 (MOLT-4): > 100 µM (inactive)
- GI50 (Malme-3M): > 100 µM (inactive)
- GI50 (NCI-H226): > 100 µM (inactive)
- GI50 (NCI-H460): > 100 µM (inactive)
- GI50 (NCI-H522): > 100 µM (inactive)
- GI50 (NCI/ADR-RES): > 100 µM (inactive)
- GI50 (OVCAR-3): > 100 µM (inactive)
- GI50 (OVCAR-4): > 100 µM (inactive)
- GI50 (OVCAR-5): > 100 µM (inactive)
- GI50 (OVCAR-8): > 100 µM (inactive)
- GI50 (PC-3): > 100 µM (inactive)
- GI50 (RPMI-8226): > 100 µM (inactive)
- GI50 (SF-295): > 100 µM (inactive)
- GI50 (SF-539): > 100 µM (inactive)
- GI50 (SK-MEL-28): > 100 µM (inactive)
- GI50 (SK-MEL-2): > 100 µM (inactive)
- GI50 (SK-MEL-5): > 100 µM (inactive)
- GI50 (SK-OV-3): > 100 µM (inactive)
- GI50 (SN12C): > 100 µM (inactive)
- GI50 (SNB-19): > 100 µM (inactive)
- GI50 (SNB-75): > 100 µM (inactive)
- GI50 (SR): > 100 µM (inactive)
- GI50 (SW-620): > 100 µM (inactive)
- GI50 (T47D): > 100 µM (inactive)
- GI50 (TK-10): > 100 µM (inactive)
- GI50 (U-251): > 100 µM (inactive)
- GI50 (UACC-257): > 100 µM (inactive)
- GI50 (UACC-62): > 100 µM (inactive)
- GI50 (UO-31): > 100 µM (inactive)

SMILES: COc1ccc(-n2c(C)nc3ccc(NC(=S)Nc4ccccc4)cc3c2=O)cc1
- GI50 (786-0): > 100 µM (inactive)
- GI50 (A498): > 100 µM (inactive)
- GI50 (ACHN): 65.9 µM (inactive)
- GI50 (BT-549): 70 µM (inactive)
- GI50 (CAKI-1): > 100 µM (inactive)
- GI50 (COLO 205): 64.1 µM (inactive)
- GI50 (DU-145): > 100 µM (inactive)
- GI50 (EKVX): 65.2 µM (inactive)
- GI50 (HCC 2998): 26.2 µM (inactive)
- GI50 (HCT-116): 39.2 µM (inactive)
- GI50 (HCT-15): 76.2 µM
- GI50 (HL-60): 53.3 µM (inactive)
- GI50 (HOP-62): > 100 µM (inactive)
- GI50 (HT-29): 62.4 µM (inactive)
- GI50 (Hs-578T): > 100 µM (inactive)
- GI50 (IGROV-1): > 100 µM (inactive)
- GI50 (K562): 51.6 µM (inactive)
- GI50 (KM12): 72.3 µM (inactive)
- GI50 (LOX IMVI): 43.7 µM (inactive)
- GI50 (MCF7): 43.2 µM (inactive)
- GI50 (MDA-MB-231): > 100 µM (inactive)
- GI50 (MDA-MB-435): 61.5 µM (inactive)
- GI50 (MOLT-4): 32.1 µM (inactive)
- GI50 (Malme-3M): > 100 µM (inactive)
- GI50 (NCI-H226): 43.2 µM (inactive)
- GI50 (NCI-H23): 52.7 µM (inactive)
- GI50 (NCI-H460): 12.4 µM (inactive)
- GI50 (NCI-H522): 56.8 µM (inactive)
- GI50 (NCI/ADR-RES): > 100 µM (inactive)
- GI50 (OVCAR-3): 34.8 µM (inactive)
- GI50 (OVCAR-4): 86.1 µM (inactive)
- GI50 (OVCAR-5): > 100 µM (inactive)
- GI50 (OVCAR-8): > 100 µM (inactive)
- GI50 (PC-3): 35.7 µM (inactive)
- GI50 (RPMI-8226): 28.6 µM (inactive)
- GI50 (RXF 393): 57.1 µM (inactive)
- GI50 (SF-268): > 100 µM (inactive)
- GI50 (SF-295): > 100 µM (inactive)
- GI50 (SK-MEL-28): 96.2 µM (inactive)
- GI50 (SK-MEL-2): 56.1 µM (inactive)
- GI50 (SK-MEL-5): 37.4 µM (inactive)
- GI50 (SN12C): > 100 µM (inactive)
- GI50 (SNB-19): > 100 µM (inactive)
- GI50 (SNB-75): > 100 µM (inactive)
- GI50 (SR): 60.7 µM (inactive)
- GI50 (SW-620): > 100 µM (inactive)
- GI50 (T47D): 44.6 µM (inactive)
- GI50 (TK-10): > 100 µM (inactive)
- GI50 (U-251): > 100 µM (inactive)
- GI50 (UACC-257): 51.8 µM (inactive)
- GI50 (UACC-62): 61.4 µM (inactive)
- GI50 (UO-31): > 100 µM (inactive)
